Measured values from patent US9840627B2, “Application of camptothecin and derivatives thereof as antifouling agent” (priority 2013, dated 2017).
Where two headings read alike, the source gives them in different places.

Columns and labels:
Assay type in all cases: in vivo
[1] = test system: cypris larvas of Balanus albicostatus; assay: Inhibitory effect on the attachment of barnacles (cypris larvas); settings: 48 h, membrane filtrated seawater
Description: Barnacles are sessile Cirripedia with calcareous shells and widespread. They firmly attach to the surfaces of vessels and various offshore artificial facilities, and are one of the major marine fouling organisms as well as one of the major target organisms in the study of antifouling technology. Adults of Balanus albicostatus were collected from the rocks and piers at Baicheng Coast in Xiamen, and their cypris larvas were obtained by culturing in laboratory. It is the attachment of the cypris larvas that causes the barnacles to change from swimming life to attaching life. Thus, inhibition of the attachment of the cypris larvas can verify the antifouling activity of the compounds. CPT and 10-hydroxyl-CPT were dissolved in ethyl acetate respectively, and a series of concentration gradient were set according to the results of pre-experiment. 1 ml of each solution was taken to a petri dish respectively, 1 ml of ethyl acetate was taken to another blank petri dish serving as control group. After the solvents evaporated completely and the compounds were distributed evenly on the bottom surfaces and the side surfaces of the petri dishes, each petri dish was added with 10 ml of membrane filtrated seawater (filtrated by membrane with pore size of 0.22 μm, the same below). […]

[2] = test system: larvas of Bugula neritina; assay: Inhibitory effect on the attachment of Bugula larvas; settings: 48 h, membrane filtrated seawater
Description: Bugulas are marine bryozoan and widespread in various sea areas in the world. They often attach to the surfaces of marine artificial facilities like mariculture netting, cages, vessels, buoys, etc., and they are important marine fouling organisms as well. Bugula neritina, also called multicellular Bugula, its adults were collected from the fish culture net bins in Western sea area of Xiamen and put into an aquarium filled with fresh seawater after back to the laboratory to induce the release of their swimming larvas. It is the attachment of their swimming larvas that causes the Bugulas to change from swimming life to attaching life. Thus, inhibition of the attachment of the swimming larvas can verify the antifouling activity of the compounds. CPT and 10-hydroxyl-CPT were dissolved in ethyl acetate respectively, and a series of concentration gradient were set according to the results of pre-experiment. 1 ml of each solution was taken to a petri dish respectively; 1 ml of ethyl acetate was taken to another blank petri dish serving as control group. After the solvents evaporated completely and the compounds were distributed evenly on the bottom surfaces and the side surfaces of the petri dishes, each petri dish was added with 10 ml of membrane filtrated seawater. […]

Perna viridis = assay: Inhibitory effect on the attachment of mussels by produced byssal threads; settings: 24 h culture at room temperature
Description: Mussels are common bivalve in marine fouling biocenoses, widespread, and are one of the major target organisms in the study of marine antifouling technology. Mussels explore surfaces by their feet, looking for attachment substrate. If proper surfaces for attaching were found, mussels would produce byssal threads to attach to them. […] Perna viridis were collected from the fish net bins in offshore sea area of Zhangzhou, and in which those with shell length of 1.4˜2.4 cm were selected and washed with seawater, followed by gent cut-off of the byssal threads. And then the Perna viridis were washed with membrane filtrated seawater. CPT were first dissolved in a trace of dimethyl sulfoxide, and then mixed with membrane filtrated seawater to prepare a series of concentration gradient. 4 ml of each solution was taken into a 12-well plate, and each well was added with one Perna viridis. 4 ml of membrane filtrated seawater containing a trace of dimethyl sulfoxide and one Perna viridis were added into the control group. Each experimental group and control group had 8 paralleled groups. After 24-hours culture at room temperature, the amount of byssal threads produced by Perna viridis were observed, and the half inhibition concentration of CPT for the attachment of Perna viridis by produced byssal threads, EC50, were determined.

[3] = test system: marine large fouling organisms; settings: for coverage ratio of fouling organisms (%, Mean ± SE): antifouling agent 20% by weight in paint, panels in sea area, Xiamen
Procedure: The panel test in natural sea area was carried out referring to the national standard GB/T5370-2007 “Method for testing antifouling panels in shallow submergence”. […] The tested panels were fixed in iron frames after the paints had dried, and they were hanged on the test buoyant rafts in the sea area near Dalipu Island in Xiamen in June, 2010. After the tested panels had been immersed in seawater up to 3, 6, 9 and 12 months, they were then photographed, and the coverage ratios of the fouling organisms in each coated sample areas were analyzed and counted. Herein, the coverage ratio of the fouling organisms is the ratio of surface area covered by marine large fouling organisms in the sample area divided by the whole surface area in the sample area (the same below), and the lower the value is, the higher the antifouling efficiency will be.

Structure (SMILES): CC[C@@]1(O)C(=O)OCc2c1cc1n(c2=O)Cc2cc3cc(O)ccc3nc2-1 [10-hydroxyl-CPT]
- half inhibition concentration (EC50) for the attachment of cypris larvas of Balanus albicostatus [1]: 1.78 µg/mL
- EC50 for the attachment of larvas of Bugula neritina [2]: 5.93 µg/mL

Structure (SMILES): CC[C@@]1(O)C(=O)OCc2c1cc1n(c2=O)Cc2cc3ccccc3nc2-1 [CPT, Camptothecin (CPT)]
- half inhibition concentration (EC50) for the attachment of cypris larvas of Balanus albicostatus [1]: 1.73 µg/mL
- EC50 for the attachment of larvas of Bugula neritina [2]: 15.02 µg/mL
- EC50 for the attachment of Perna viridis by produced byssal threads (Perna viridis): 10.78 µg/mL
- coverage ratio of fouling organisms (%, Mean ± SE) ([3]; after 3 months): 0.15 ± 0.12%
- coverage ratio of fouling organisms (%, Mean ± SE) ([3]; after 6 months): 11.6 ± 6.68%
- coverage ratio of fouling organisms (%, Mean ± SE) ([3]; after 9 months): 9.03 ± 2.64%
- coverage ratio of fouling organisms (%, Mean ± SE) ([3]; after 12 months): 39.67 ± 10.43%
- antifouling term ([3]; paints prepared with CPT as antifouling agent, panel test in sea area): up to 12 months

Structure (SMILES): [Cu].[O]=[Cu] [Cu2O, cuprous oxide, reference compound]
- coverage ratio of fouling organisms (%, Mean ± SE) ([3]; after 3 months): 7.23 ± 2.02%
- coverage ratio of fouling organisms (%, Mean ± SE) ([3]; after 6 months): 91.75 ± 2.90%
- coverage ratio of fouling organisms (%, Mean ± SE) ([3]; after 9 months): 70.91 ± 13.40%
- coverage ratio of fouling organisms (%, Mean ± SE) ([3]; after 12 months): 98.88 ± 0.48%
